Reference: publication PMC10337138 (Acta Neuropathologica Communications, 2023)

Legend:
Conditions in all cases: 1 mM ATP; inhibitor
PLK3 = PLK3 (Homo sapiens, UniProt Q9H4B4)
Procedure: (§1) Kinase selectivity panel Kinome profiling was conducted by AssayQuant Technologies (Marlboro, MA) using Sox chromophore technology and Sox-based peptide substrates developed for human kinases in a 384-well format. Compounds were tested at 1 µM in the presence of 1 mM ATP.

EPHA1 = EPHA1 (Homo sapiens, UniProt P21709)
Procedure: as §1

MAP2K2/MEK2 = MAP2K2/MEK2 (Homo sapiens, UniProt P36507)
Procedure: as §1

EEF2K = EEF2K (Homo sapiens, UniProt O00418)
Procedure: as §1

GRK3 = GRK3 (Homo sapiens, UniProt P35626)
Procedure: as §1

ERBB2/HER2 = ERBB2/HER2 (Homo sapiens, UniProt P04626)
Procedure: as §1

CAMK2D = CAMK2D (Homo sapiens, UniProt Q13557)
Procedure: as §1

STK4/MST1 = STK4/MST1 (Homo sapiens, UniProt Q13043)
Procedure: as §1

PDK1 = target: T1, PDK1 (Homo sapiens, UniProt O15530)
T1 construct: gene PDPK1
Procedure: as §1

ULK3 = ULK3 (Homo sapiens, UniProt Q6PHR2)
Procedure: as §1

ABL1 = ABL1 (Homo sapiens, UniProt P00519)
Procedure: as §1

GRK4 = GRK4 (Homo sapiens, UniProt P32298)
Procedure: as §1

ULK2 = ULK2 (Homo sapiens, UniProt Q8IYT8)
Procedure: as §1

FGFR4 = FGFR4 (Homo sapiens, UniProt P22455)
Procedure: as §1

MARK4 = MARK4 (Homo sapiens, UniProt Q96L34)
Procedure: as §1

PRKAA1/AMPK121 = PRKAA1/AMPK121 (Homo sapiens, UniProt Q13131)
Procedure: as §1

PTK2 = PTK2 (Homo sapiens, UniProt Q05397)
Procedure: as §1

RPS6KA6/RSK4 = RPS6KA6/RSK4 (Homo sapiens, UniProt Q9UK32)
Procedure: as §1

SRPK2 = SRPK2 (Homo sapiens, UniProt P78362)
Procedure: as §1

FER = FER (Homo sapiens, UniProt P16591)
Procedure: as §1

RIPK2 = RIPK2 (Homo sapiens, UniProt O43353)
Procedure: as §1

TAOK3 = TAOK3 (Homo sapiens, UniProt Q9H2K8)
Procedure: as §1

MAPKAPK3/MK3 = MAPKAPK3/MK3 (Homo sapiens, UniProt Q16644)
Procedure: as §1

EPHA3 = EPHA3 (Homo sapiens, UniProt P29320)
Procedure: as §1

AAK1 = AAK1 (Homo sapiens, UniProt Q2M2I8)
Procedure: as §1

NEK9 = NEK9 (Homo sapiens, UniProt Q8TD19)
Procedure: as §1

RAF1 = RAF1 (Homo sapiens, UniProt P04049)
Procedure: as §1

PRKCQ/PKCQ = PRKCQ/PKCQ (Homo sapiens, UniProt Q04759)
Procedure: as §1

TSSK6 = TSSK6 (Homo sapiens, UniProt Q9BXA6)
Procedure: as §1

EPHA7 = EPHA7 (Homo sapiens, UniProt Q15375)
Procedure: as §1

PRKCB1/PKCB1 = target: T2, PRKCB1/PKCB1 (Homo sapiens, UniProt P05771)
T2 construct: gene PRKCB
Procedure: as §1

SGK3 = SGK3 (Homo sapiens, UniProt Q96BR1)
Procedure: as §1

CDK2/A2 = CDK2/A2 (Homo sapiens, UniProt P24941)
Procedure: as §1

CDC42BPG/DMPK2 = CDC42BPG/DMPK2 (Homo sapiens, UniProt Q6DT37)
Procedure: as §1

MNK2 = target: T3, MNK2 (Homo sapiens, UniProt Q9HBH9)
T3 construct: gene MKNK2
Procedure: as §1

RPS6KA2/RSK3 = RPS6KA2/RSK3 (Homo sapiens, UniProt Q15349)
Procedure: as §1

PDHK4 = target: T4, PDHK4 (Homo sapiens, UniProt Q16654)
T4 construct: gene PDK4
Procedure: as §1

TEK/TIE2 = TEK/TIE2 (Homo sapiens, UniProt Q02763)
Procedure: as §1

Sequence of PLK3 (Q9H4B4 whole entry): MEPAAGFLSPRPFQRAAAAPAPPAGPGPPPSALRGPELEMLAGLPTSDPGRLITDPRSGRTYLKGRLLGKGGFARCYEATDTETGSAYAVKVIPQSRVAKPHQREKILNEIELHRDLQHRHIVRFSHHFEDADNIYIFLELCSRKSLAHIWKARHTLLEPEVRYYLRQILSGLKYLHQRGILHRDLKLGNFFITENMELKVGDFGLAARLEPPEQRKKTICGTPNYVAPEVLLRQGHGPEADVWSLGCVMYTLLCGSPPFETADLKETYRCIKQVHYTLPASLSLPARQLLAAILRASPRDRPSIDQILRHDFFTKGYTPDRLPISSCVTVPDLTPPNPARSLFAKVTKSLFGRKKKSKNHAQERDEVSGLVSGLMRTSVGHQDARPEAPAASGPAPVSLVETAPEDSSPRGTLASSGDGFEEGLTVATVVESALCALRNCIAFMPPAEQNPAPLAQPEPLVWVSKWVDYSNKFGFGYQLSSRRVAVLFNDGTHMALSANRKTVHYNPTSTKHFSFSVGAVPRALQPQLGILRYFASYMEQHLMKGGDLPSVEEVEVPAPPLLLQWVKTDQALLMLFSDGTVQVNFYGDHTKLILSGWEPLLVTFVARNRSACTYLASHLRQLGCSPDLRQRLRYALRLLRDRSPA
Sequence of RPS6KA6/RSK4 (Q9UK32 whole entry): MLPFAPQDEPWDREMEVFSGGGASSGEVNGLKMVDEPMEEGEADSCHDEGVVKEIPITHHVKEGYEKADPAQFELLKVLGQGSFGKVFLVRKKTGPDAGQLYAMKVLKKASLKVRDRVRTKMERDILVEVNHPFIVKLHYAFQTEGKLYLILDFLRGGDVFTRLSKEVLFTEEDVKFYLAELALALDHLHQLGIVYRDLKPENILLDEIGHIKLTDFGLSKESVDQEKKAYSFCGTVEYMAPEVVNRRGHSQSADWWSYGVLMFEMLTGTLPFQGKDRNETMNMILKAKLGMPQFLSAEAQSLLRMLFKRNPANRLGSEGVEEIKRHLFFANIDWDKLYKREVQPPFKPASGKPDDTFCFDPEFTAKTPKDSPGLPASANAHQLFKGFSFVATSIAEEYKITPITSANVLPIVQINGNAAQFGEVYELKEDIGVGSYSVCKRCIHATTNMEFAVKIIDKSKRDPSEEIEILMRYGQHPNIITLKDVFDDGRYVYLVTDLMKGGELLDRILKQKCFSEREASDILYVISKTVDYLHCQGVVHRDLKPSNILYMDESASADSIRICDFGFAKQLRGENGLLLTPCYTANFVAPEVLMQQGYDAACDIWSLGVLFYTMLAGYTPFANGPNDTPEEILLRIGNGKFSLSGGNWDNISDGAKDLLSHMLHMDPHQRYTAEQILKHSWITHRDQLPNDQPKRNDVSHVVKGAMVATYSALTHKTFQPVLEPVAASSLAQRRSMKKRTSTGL
Sequence of FGFR4 (P22455 whole entry): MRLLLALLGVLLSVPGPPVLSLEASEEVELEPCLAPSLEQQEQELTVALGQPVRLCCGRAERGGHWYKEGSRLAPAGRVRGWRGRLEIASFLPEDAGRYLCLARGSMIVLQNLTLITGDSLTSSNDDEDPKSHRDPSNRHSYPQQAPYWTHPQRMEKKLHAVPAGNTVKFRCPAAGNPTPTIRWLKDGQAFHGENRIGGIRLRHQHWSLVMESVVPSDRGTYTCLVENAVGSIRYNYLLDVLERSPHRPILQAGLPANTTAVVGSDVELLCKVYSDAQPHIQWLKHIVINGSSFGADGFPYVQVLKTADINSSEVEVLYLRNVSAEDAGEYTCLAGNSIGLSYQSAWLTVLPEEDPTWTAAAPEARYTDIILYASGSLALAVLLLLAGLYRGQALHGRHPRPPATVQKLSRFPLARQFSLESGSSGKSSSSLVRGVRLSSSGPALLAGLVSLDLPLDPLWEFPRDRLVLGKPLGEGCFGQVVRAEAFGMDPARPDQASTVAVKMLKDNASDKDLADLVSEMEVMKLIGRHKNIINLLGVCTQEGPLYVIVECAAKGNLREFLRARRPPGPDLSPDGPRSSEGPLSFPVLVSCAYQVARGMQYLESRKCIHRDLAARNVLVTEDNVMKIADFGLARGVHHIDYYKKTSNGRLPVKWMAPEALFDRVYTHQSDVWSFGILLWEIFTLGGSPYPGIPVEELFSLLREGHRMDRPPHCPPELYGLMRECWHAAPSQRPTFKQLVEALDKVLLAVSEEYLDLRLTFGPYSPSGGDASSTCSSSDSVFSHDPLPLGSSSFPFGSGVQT
Sequence of AAK1 (Q2M2I8 whole entry): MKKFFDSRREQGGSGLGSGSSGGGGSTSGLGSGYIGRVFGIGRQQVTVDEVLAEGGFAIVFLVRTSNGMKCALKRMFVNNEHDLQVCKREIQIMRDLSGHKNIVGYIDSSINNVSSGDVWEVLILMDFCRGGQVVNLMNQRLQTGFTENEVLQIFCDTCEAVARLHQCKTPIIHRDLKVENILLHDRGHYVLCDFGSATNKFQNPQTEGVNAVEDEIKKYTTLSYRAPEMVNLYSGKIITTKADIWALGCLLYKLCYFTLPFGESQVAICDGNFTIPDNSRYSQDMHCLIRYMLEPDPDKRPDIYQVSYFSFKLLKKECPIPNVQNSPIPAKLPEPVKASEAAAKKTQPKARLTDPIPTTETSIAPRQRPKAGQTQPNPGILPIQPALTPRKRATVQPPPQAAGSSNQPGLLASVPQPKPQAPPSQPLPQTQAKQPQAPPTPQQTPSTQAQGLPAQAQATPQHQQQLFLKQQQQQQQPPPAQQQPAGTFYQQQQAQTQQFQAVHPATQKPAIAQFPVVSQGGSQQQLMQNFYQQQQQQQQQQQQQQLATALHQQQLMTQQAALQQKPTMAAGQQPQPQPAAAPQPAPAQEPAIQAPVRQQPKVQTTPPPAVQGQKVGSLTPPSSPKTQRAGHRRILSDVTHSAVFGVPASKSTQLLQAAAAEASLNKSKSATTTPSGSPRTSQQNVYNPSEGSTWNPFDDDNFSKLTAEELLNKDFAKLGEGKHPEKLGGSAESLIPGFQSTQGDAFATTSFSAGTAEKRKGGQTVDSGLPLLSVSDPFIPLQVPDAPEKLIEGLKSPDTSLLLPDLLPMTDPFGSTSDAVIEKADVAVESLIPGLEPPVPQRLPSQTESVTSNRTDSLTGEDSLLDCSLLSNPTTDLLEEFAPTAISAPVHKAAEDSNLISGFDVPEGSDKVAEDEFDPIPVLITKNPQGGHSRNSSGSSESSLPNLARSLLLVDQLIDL
Sequence of FER (P16591 whole entry): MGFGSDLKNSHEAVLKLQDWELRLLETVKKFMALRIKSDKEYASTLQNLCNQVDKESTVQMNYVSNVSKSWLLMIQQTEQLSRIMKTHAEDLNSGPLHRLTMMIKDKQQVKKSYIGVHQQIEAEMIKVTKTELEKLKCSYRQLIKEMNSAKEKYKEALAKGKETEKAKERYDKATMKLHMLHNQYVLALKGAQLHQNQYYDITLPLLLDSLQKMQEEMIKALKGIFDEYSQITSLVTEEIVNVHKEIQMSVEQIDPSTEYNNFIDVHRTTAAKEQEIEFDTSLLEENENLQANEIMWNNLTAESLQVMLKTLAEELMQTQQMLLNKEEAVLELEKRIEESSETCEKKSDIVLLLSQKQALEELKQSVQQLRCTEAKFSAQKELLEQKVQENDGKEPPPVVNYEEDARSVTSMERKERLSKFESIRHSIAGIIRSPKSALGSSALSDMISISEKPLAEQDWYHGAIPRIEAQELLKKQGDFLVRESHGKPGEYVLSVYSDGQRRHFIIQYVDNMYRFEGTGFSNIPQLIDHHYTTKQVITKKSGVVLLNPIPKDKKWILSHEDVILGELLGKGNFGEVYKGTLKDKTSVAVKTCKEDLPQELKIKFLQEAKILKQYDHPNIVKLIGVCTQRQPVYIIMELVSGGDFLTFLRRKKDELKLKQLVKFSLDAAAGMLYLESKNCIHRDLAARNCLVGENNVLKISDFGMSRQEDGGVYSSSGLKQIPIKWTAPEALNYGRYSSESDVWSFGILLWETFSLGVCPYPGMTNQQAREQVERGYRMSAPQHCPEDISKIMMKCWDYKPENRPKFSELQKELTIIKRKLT
T4 sequence (Q16654 whole entry): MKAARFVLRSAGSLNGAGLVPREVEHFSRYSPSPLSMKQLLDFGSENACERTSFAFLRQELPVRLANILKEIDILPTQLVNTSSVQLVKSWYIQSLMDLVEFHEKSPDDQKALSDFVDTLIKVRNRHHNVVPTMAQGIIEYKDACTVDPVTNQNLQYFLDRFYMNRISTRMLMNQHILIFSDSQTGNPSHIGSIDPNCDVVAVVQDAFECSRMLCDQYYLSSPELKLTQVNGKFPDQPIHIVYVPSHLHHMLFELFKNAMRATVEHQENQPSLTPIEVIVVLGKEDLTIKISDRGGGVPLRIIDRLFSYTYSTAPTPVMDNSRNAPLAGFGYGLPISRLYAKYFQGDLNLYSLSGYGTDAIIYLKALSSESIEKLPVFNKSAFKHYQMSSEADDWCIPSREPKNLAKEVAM
Sequence of CAMK2D (Q13557 whole entry): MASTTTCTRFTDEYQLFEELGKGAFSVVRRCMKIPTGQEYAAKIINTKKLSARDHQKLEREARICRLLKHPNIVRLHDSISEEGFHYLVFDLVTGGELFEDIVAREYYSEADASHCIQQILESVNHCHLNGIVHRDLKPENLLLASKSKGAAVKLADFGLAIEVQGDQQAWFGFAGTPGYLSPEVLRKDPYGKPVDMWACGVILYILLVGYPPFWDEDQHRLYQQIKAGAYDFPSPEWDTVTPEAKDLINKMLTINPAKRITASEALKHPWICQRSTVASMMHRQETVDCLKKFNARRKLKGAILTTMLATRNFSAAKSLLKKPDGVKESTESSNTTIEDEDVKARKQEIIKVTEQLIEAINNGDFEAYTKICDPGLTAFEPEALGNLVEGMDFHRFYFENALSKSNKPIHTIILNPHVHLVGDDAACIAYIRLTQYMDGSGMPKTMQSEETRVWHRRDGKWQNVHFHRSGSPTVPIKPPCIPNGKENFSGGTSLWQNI

C=CC(=O)N1CCC[C@@H](n2nc(-c3ccc(Oc4ccccc4)cc3)c3c(N)ncnc32)C1 [Ibrutinib]
1 µM GBD00276 (ibrutinib), % inhibition (PLK3): 16.45% | 1 µM GBD00276 (ibrutinib), % inhibition (EPHA1): 10.7% | 1 µM GBD00276 (ibrutinib), % inhibition (MAP2K2/MEK2): -23.38% | 1 µM GBD00276 (ibrutinib), % inhibition (EEF2K): 6.273% | 1 µM GBD00276 (ibrutinib), % inhibition (GRK3): -19.22% | 1 µM GBD00276 (ibrutinib), % inhibition (ERBB2/HER2): 98.1% | 1 µM GBD00276 (ibrutinib), % inhibition (CAMK2D): 12.33% | 1 µM GBD00276 (ibrutinib), % inhibition (STK4/MST1): -13.54% | 1 µM GBD00276 (ibrutinib), % inhibition (PDK1): 7.444% | 1 µM GBD00276 (ibrutinib), % inhibition (ULK3): 2.341% | 1 µM GBD00276 (ibrutinib), % inhibition (ABL1): -21.62% | 1 µM GBD00276 (ibrutinib), % inhibition (GRK4): 18.83% | 1 µM GBD00276 (ibrutinib), % inhibition (ULK2): -2.604% | 1 µM GBD00276 (ibrutinib), % inhibition (FGFR4): 19.57% | 1 µM GBD00276 (ibrutinib), % inhibition (MARK4): -1.923% | 1 µM GBD00276 (ibrutinib), % inhibition (PRKAA1/AMPK121): 2.34% | 1 µM GBD00276 (ibrutinib), % inhibition (PTK2): -4.777% | 1 µM GBD00276 (ibrutinib), % inhibition (RPS6KA6/RSK4): 23.9% | 1 µM GBD00276 (ibrutinib), % inhibition (SRPK2): 8.374% | 1 µM GBD00276 (ibrutinib), % inhibition (FER): 6.712% | 1 µM GBD00276 (ibrutinib), % inhibition (RIPK2): 98.43% | 1 µM GBD00276 (ibrutinib), % inhibition (TAOK3): 9.158% | 1 µM GBD00276 (ibrutinib), % inhibition (MAPKAPK3/MK3): 9.483% | 1 µM GBD00276 (ibrutinib), % inhibition (EPHA3): 12.32% | 1 µM GBD00276 (ibrutinib), % inhibition (AAK1): 6.339% | 1 µM GBD00276 (ibrutinib), % inhibition (NEK9): 2.083% | 1 µM GBD00276 (ibrutinib), % inhibition (RAF1): -13.81% | 1 µM GBD00276 (ibrutinib), % inhibition (PRKCQ/PKCQ): 12.04% | 1 µM GBD00276 (ibrutinib), % inhibition (TSSK6): 2.044% | 1 µM GBD00276 (ibrutinib), % inhibition (EPHA7): -0.6285% | 1 µM GBD00276 (ibrutinib), % inhibition (PRKCB1/PKCB1): -10.64% | 1 µM GBD00276 (ibrutinib), % inhibition (SGK3): 7.387% | 1 µM GBD00276 (ibrutinib), % inhibition (CDK2/A2): -9.861% | 1 µM GBD00276 (ibrutinib), % inhibition (CDC42BPG/DMPK2): -2.51% | 1 µM GBD00276 (ibrutinib), % inhibition (MNK2): -1.826% | 1 µM GBD00276 (ibrutinib), % inhibition (RPS6KA2/RSK3): 22.45% | 1 µM GBD00276 (ibrutinib), % inhibition (PDHK4): -54.44% | 1 µM GBD00276 (ibrutinib), % inhibition (TEK/TIE2): 2.512%
